Data taken from PubChem BioAssay (NCI).
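Grown in 96-well plates, cells were treated for 48 hours with each compound at five concentrations. Insufficient inhibition: endpoint recorded as highest concentration tested. GI50: concentration for 50% inhibition of growth. TGI: total growth inhibition.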

Assays:
Assay in all cases: inhibition of tumour cell growth, NCI panel, 48 h
SN12C renal = tested on: SN12C renal
K-562 leukemia = tested on: K-562 leukemia
SNB-75 CNS = tested on: SNB-75 CNS
SK-MEL-28 melanoma = tested on: SK-MEL-28 melanoma
PC-3 prostate = tested on: PC-3 prostate
HOP-92 NSCLC = tested on: HOP-92 NSCLC
HOP-62 NSCLC = tested on: HOP-62 NSCLC
SK-MEL-5 melanoma = tested on: SK-MEL-5 melanoma
HCC-2998 colon = tested on: HCC-2998 colon
SW-620 colon = tested on: SW-620 colon
OVCAR-4 ovarian = tested on: OVCAR-4 ovarian
ACHN renal = tested on: ACHN renal
SK-OV-3 ovarian = tested on: SK-OV-3 ovarian
UACC-257 melanoma = tested on: UACC-257 melanoma
HS 578T breast = tested on: HS 578T breast
OVCAR-8 ovarian = tested on: OVCAR-8 ovarian
UACC-62 melanoma = tested on: UACC-62 melanoma
SK-MEL-2 melanoma = tested on: SK-MEL-2 melanoma
SF-295 CNS = tested on: SF-295 CNS
U251 CNS = tested on: U251 CNS
NCI-H23 lung = tested on: NCI-H23 lung
M14 melanoma = tested on: M14 melanoma
BT-549 breast = tested on: BT-549 breast
OVCAR-5 ovarian = tested on: OVCAR-5 ovarian
NCI-H226 lung = tested on: NCI-H226 lung
TK-10 renal = tested on: TK-10 renal
KM12 colon = tested on: KM12 colon
HCT-15 colon = tested on: HCT-15 colon
OVCAR-3 ovarian = tested on: OVCAR-3 ovarian
UO-31 renal = tested on: UO-31 renal
SF-539 CNS = tested on: SF-539 CNS
HL-60(TB) leukemia = tested on: HL-60(TB) leukemia
EKVX NSCLC = tested on: EKVX NSCLC
MDA-MB-435 = tested on: MDA-MB-435
IGROV1 ovarian = tested on: IGROV1 ovarian
MALME-3M melanoma = tested on: MALME-3M melanoma
SNB-19 CNS = tested on: SNB-19 CNS
A549 NSCLC = tested on: A549 NSCLC
NCI/ADR-RES ovarian = tested on: NCI/ADR-RES ovarian
SR leukemia = tested on: SR leukemia
NCI-H460 lung = tested on: NCI-H460 lung
MDA-MB-231 breast = tested on: MDA-MB-231 breast
COLO 205 colon = tested on: COLO 205 colon
DU-145 prostate = tested on: DU-145 prostate
RXF 393 renal = tested on: RXF 393 renal
LOX IMVI melanoma = tested on: LOX IMVI melanoma
MOLT-4 leukemia = tested on: MOLT-4 leukemia
HCT-116 colon = tested on: HCT-116 colon
MCF7 breast = tested on: MCF7 breast
NCI-H522 lung = tested on: NCI-H522 lung
786-0 renal = tested on: 786-0 renal
CAKI-1 renal = tested on: CAKI-1 renal
RPMI-8226 leukemia = tested on: RPMI-8226 leukemia
SF-268 CNS = tested on: SF-268 CNS
T-47D breast = tested on: T-47D breast
HT29 colon = tested on: HT29 colon
CCRF-CEM leukemia = tested on: CCRF-CEM leukemia
A498 renal = tested on: A498 renal

Q: Which GI50 (SN12C renal) does the source give for `Cc1[nH]nc2ccc3nc(-c4ccc5[nH]ncc5c4)c4c(c3c12)CCCC4` here?
A: 2090 nM

Q: And the TGI (SN12C renal)?
A: 12700 nM

Q: What about the GI50 (K-562 leukemia) of the same molecule?
A: 1700 nM

Q: And the TGI (K-562 leukemia)?
A: > 100000 nM

Q: What about the GI50 (SNB-75 CNS) of the same molecule?
A: 1520 nM

Q: And the TGI (SNB-75 CNS)?
A: 7280 nM

Q: And the GI50 (SK-MEL-28 melanoma)?
A: 2090 nM

Q: What about the TGI (SK-MEL-28 melanoma) of the same molecule?
A: 9540 nM

Q: What about the GI50 (PC-3 prostate) of the same molecule?
A: 2860 nM

Q: What about the TGI (PC-3 prostate) of the same molecule?
A: 23600 nM

Q: And the GI50 (HOP-92 NSCLC)?
A: 1910 nM

Q: And the TGI (HOP-92 NSCLC)?
A: 6000 nM

Q: And the GI50 (HOP-62 NSCLC)?
A: 1410 nM

Q: And the TGI (HOP-62 NSCLC)?
A: 15100 nM

Q: What about the GI50 (SK-MEL-5 melanoma) of the same molecule?
A: 1920 nM

Q: What about the TGI (SK-MEL-5 melanoma) of the same molecule?
A: 5000 nM

Q: And the GI50 (HCC-2998 colon)?
A: 2190 nM

Q: What about the TGI (HCC-2998 colon) of the same molecule?
A: 15100 nM

Q: And the GI50 (SW-620 colon)?
A: 494 nM

Q: And the TGI (SW-620 colon)?
A: 8790 nM

Q: What about the GI50 (OVCAR-4 ovarian) of the same molecule?
A: 2120 nM

Q: And the TGI (OVCAR-4 ovarian)?
A: 28000 nM

Q: What about the GI50 (ACHN renal) of the same molecule?
A: 367 nM

Q: What about the TGI (ACHN renal) of the same molecule?
A: 12900 nM

Q: And the GI50 (SK-OV-3 ovarian)?
A: 243 nM

Q: And the TGI (SK-OV-3 ovarian)?
A: 940 nM

Q: And the GI50 (UACC-257 melanoma)?
A: 1680 nM

Q: And the TGI (UACC-257 melanoma)?
A: 6630 nM

Q: What about the GI50 (HS 578T breast) of the same molecule?
A: 1340 nM

Q: What about the TGI (HS 578T breast) of the same molecule?
A: 12500 nM

Q: What about the GI50 (OVCAR-8 ovarian) of the same molecule?
A: 1150 nM

Q: And the TGI (OVCAR-8 ovarian)?
A: 13200 nM

Q: What about the GI50 (UACC-62 melanoma) of the same molecule?
A: 717 nM

Q: And the TGI (UACC-62 melanoma)?
A: 6130 nM

Q: And the GI50 (SK-MEL-2 melanoma)?
A: 476 nM

Q: What about the TGI (SK-MEL-2 melanoma) of the same molecule?
A: 2480 nM

Q: What about the GI50 (SF-295 CNS) of the same molecule?
A: 2740 nM

Q: And the TGI (SF-295 CNS)?
A: 10500 nM

Q: What about the GI50 (U251 CNS) of the same molecule?
A: 920 nM

Q: What about the TGI (U251 CNS) of the same molecule?
A: 13900 nM

Q: What about the GI50 (NCI-H23 lung) of the same molecule?
A: 2220 nM

Q: What about the TGI (NCI-H23 lung) of the same molecule?
A: 11200 nM

Q: And the GI50 (M14 melanoma)?
A: 604 nM

Q: What about the TGI (M14 melanoma) of the same molecule?
A: 13300 nM

Q: And the GI50 (BT-549 breast)?
A: 1100 nM

Q: What about the TGI (BT-549 breast) of the same molecule?
A: 8800 nM

Q: And the GI50 (OVCAR-5 ovarian)?
A: 2530 nM

Q: And the TGI (OVCAR-5 ovarian)?
A: 13900 nM

Q: And the GI50 (NCI-H226 lung)?
A: 1890 nM

Q: And the TGI (NCI-H226 lung)?
A: 10800 nM

Q: And the GI50 (TK-10 renal)?
A: 1120 nM

Q: What about the TGI (TK-10 renal) of the same molecule?
A: 20000 nM

Q: What about the GI50 (KM12 colon) of the same molecule?
A: 630 nM

Q: What about the TGI (KM12 colon) of the same molecule?
A: 13600 nM

Q: What about the GI50 (HCT-15 colon) of the same molecule?
A: 638 nM

Q: What about the TGI (HCT-15 colon) of the same molecule?
A: 12600 nM

Q: And the GI50 (OVCAR-3 ovarian)?
A: 2070 nM

Q: And the TGI (OVCAR-3 ovarian)?
A: 10600 nM

Q: And the GI50 (UO-31 renal)?
A: 802 nM

Q: What about the TGI (UO-31 renal) of the same molecule?
A: 5990 nM

Q: What about the GI50 (SF-539 CNS) of the same molecule?
A: 1620 nM

Q: And the TGI (SF-539 CNS)?
A: 8440 nM

Q: What about the GI50 (HL-60(TB) leukemia) of the same molecule?
A: 1730 nM

Q: What about the TGI (HL-60(TB) leukemia) of the same molecule?
A: 4320 nM

Q: And the GI50 (EKVX NSCLC)?
A: 2950 nM

Q: And the TGI (EKVX NSCLC)?
A: 25700 nM

Q: What about the GI50 (MDA-MB-435) of the same molecule?
A: 1230 nM

Q: And the TGI (MDA-MB-435)?
A: 12900 nM

Q: And the GI50 (IGROV1 ovarian)?
A: 492 nM

Q: What about the TGI (IGROV1 ovarian) of the same molecule?
A: 7140 nM

Q: And the GI50 (MALME-3M melanoma)?
A: 1330 nM

Q: And the TGI (MALME-3M melanoma)?
A: 6320 nM

Q: What about the GI50 (SNB-19 CNS) of the same molecule?
A: 2620 nM

Q: What about the TGI (SNB-19 CNS) of the same molecule?
A: 12100 nM

Q: What about the GI50 (A549 NSCLC) of the same molecule?
A: 932 nM

Q: What about the TGI (A549 NSCLC) of the same molecule?
A: 12400 nM

Q: What about the GI50 (NCI/ADR-RES ovarian) of the same molecule?
A: 2400 nM

Q: And the TGI (NCI/ADR-RES ovarian)?
A: 15800 nM

Q: What about the GI50 (SR leukemia) of the same molecule?
A: 525 nM

Q: And the TGI (SR leukemia)?
A: 25700 nM

Q: And the GI50 (NCI-H460 lung)?
A: 832 nM

Q: What about the TGI (NCI-H460 lung) of the same molecule?
A: 11200 nM

Q: And the GI50 (MDA-MB-231 breast)?
A: 1710 nM

Q: And the TGI (MDA-MB-231 breast)?
A: 12700 nM

Q: What about the GI50 (COLO 205 colon) of the same molecule?
A: 1090 nM

Q: And the TGI (COLO 205 colon)?
A: 10800 nM

Q: What about the GI50 (DU-145 prostate) of the same molecule?
A: 1050 nM

Q: What about the TGI (DU-145 prostate) of the same molecule?
A: 12200 nM

Q: And the GI50 (RXF 393 renal)?
A: 230 nM

Q: What about the GI50 (LOX IMVI melanoma) of the same molecule?
A: 1220 nM

Q: And the TGI (LOX IMVI melanoma)?
A: 11000 nM

Q: What about the GI50 (MOLT-4 leukemia) of the same molecule?
A: 1920 nM

Q: And the TGI (MOLT-4 leukemia)?
A: 10100 nM

Q: What about the GI50 (HCT-116 colon) of the same molecule?
A: 473 nM

Q: What about the TGI (HCT-116 colon) of the same molecule?
A: 11300 nM

Q: What about the GI50 (MCF7 breast) of the same molecule?
A: 3540 nM

Q: And the TGI (MCF7 breast)?
A: 17100 nM

Q: And the GI50 (NCI-H522 lung)?
A: 446 nM

Q: What about the TGI (NCI-H522 lung) of the same molecule?
A: 6010 nM

Q: What about the GI50 (786-0 renal) of the same molecule?
A: 1190 nM

Q: What about the TGI (786-0 renal) of the same molecule?
A: 12900 nM

Q: What about the GI50 (CAKI-1 renal) of the same molecule?
A: 535 nM

Q: And the TGI (CAKI-1 renal)?
A: 12000 nM

Q: What about the GI50 (RPMI-8226 leukemia) of the same molecule?
A: 1510 nM

Q: What about the TGI (RPMI-8226 leukemia) of the same molecule?
A: 6650 nM

Q: What about the GI50 (SF-268 CNS) of the same molecule?
A: 1970 nM

Q: What about the TGI (SF-268 CNS) of the same molecule?
A: 17800 nM

Q: What about the GI50 (T-47D breast) of the same molecule?
A: 1140 nM

Q: And the TGI (T-47D breast)?
A: 8220 nM

Q: And the GI50 (HT29 colon)?
A: 1510 nM

Q: And the TGI (HT29 colon)?
A: 12500 nM

Q: And the GI50 (CCRF-CEM leukemia)?
A: 2130 nM

Q: What about the TGI (CCRF-CEM leukemia) of the same molecule?
A: > 100000 nM

Q: And the GI50 (A498 renal)?
A: 280 nM

Q: And the TGI (A498 renal)?
A: 1800 nM
